Measured values from patent US20080004320A1, “Remedy for Glomerular Disease” (Kowa Co., Ltd., priority 2004, published 2008).
Where a name gives a salt, the structure may show the parent alone.

Tested on: ⅚ nephrectomized rats
Test: Effect on ⅚ nephrectomized rat (progressive renal failure model)
Type: in vivo
Settings: for death due to renal failure, compared with control group (FIG. 1): until week 15 after initiation of drug administration; for glomerulosclerosis score compared with control group (in words) / Glomerulosclerosis (score): week 15 after initiation of drug administration; for Glomerulosclerosis (score): average score of 50 glomeruli per renal tissue piece, male SD rats
From the text: Fifty-one male SD rats (seven weeks old, purchased from Japan SLC, Inc.) were anesthetized with pentobarbital, and the left kidney of each rat was exposed. Under a stereoscopic microscope, two of the left renal artery branches (generally, one renal artery is separated into three branches) were ligated and one central branch was left intact. When a renal artery branch is ligated, a portion controlled by the branch falls into ischemia, and such an ischemic renal portion can be visually detected. One week later, the right kidney was removed. That is to say, ⅚ of the kidneys was removed. Four weeks after surgery, blood was collected from each rat under unanesthetized conditions, and plasma creatinine level (Pcr) was measured. Pcr is a blood parameter indicative of renal function, and an increase in Pcr indicates impairment of renal function. After Pcr measurement, rats with considerably impaired renal function and rats with no impairment of renal function were eliminated, to thereby select 36 rats employed for the test.
Subsequently, on the basis of the thus-obtained Pcr data, these rats were divided into four groups in such a manner that the value of Pcr was averaged out among each group: control group (i.e., no drug administration group) (N=9); pyridoxamine dihydrochloride administration group (administered in the form of aqueous solution (1.5 g/L)) (N=9); candesartan cilexetil administration group ((1 mg/kg) administered orally once a day) (N=9); and combined administration group (pyridoxamine dihydrochloride administered in the form of aqueous solution (1.5 g/L), and candesartan cilexetil (1 mg/kg) administered orally once a day) (N=9). In addition to these four groups, one normal rat group non-surgical group, was provided.
Pyridoxamine dihydrochloride was dissolved in purified water, and the aqueous solution was available to the rats ad libitum. The daily dose of pyridoxamine dihydrochloride was about 100 mg/kg Candesartan cilexetil was suspended in 0.5% methyl cellulose sodium solution upon use, and the suspension was repeatedly orally administered.
Drug administration was initiated at week five after surgery (Pcr was about 1.5 mg/dL at the start of drug administration; i.e., renal function had already been impaired).
After initiation of drug administration, the number of surviving rats was recorded every day. Per was measured at week two, week four, week seven, week 11, and week 15 after initiation of drug administration. Urinary total protein excretion was measured at week four, week seven, week 11 and week 15 after initiation of drug administration (each measurement was performed after 18-hour urine accumulation). In addition, at week 15 after initiation of drug administration, systolic blood pressure was measured under unanesthetized conditions by means of a noninvasive blood pressure measuring apparatus.
At week 15 after initiation of drug administration, the renal tissue of each rat was observed, and the degree of glomerulosclerosis was evaluated on the basis of the below-described score. […] As used herein, the term “score” refers to the degree of glomerulosclerosis; i.e., the degree of hyperplasia of mesangial matrix in glomeruli. […] Score 0 was assigned to a glomerulus similar to that of rats in the normal rat group; score 1 was assigned to a glomerulus in which the area of mesangial matrix accounts for less than 25%; score 2 was assigned to a glomerulus in which the area of mesangial matrix accounts for 25% or more and less than 50%; score 3 was assigned to a glomerulus in which the area of mesangial matrix accounts for 50% or more and less than […]; and score 4 was assigned to a glomerulus in which the area of mesangial matrix accounts for 75% or more. The average of the thus-obtained scores of the glomeruli was employed for evaluation of glomerulosclerosis.

Row | SMILES | death due to renal failure, compared with control group (FIG. 1) | glomerulosclerosis score compared with control group (in words) | Glomerulosclerosis (score)
1 | Cc1ncc(CO)c(CN)c1O [Pyridoxamine dihydrochloride, 4-(aminomethyl)-5-hydroxy-6-methyl-3-pyridinemethanol] | tendency for suppression of death due to renal failure was observed | no reduction in score was observed | 1.93 ± 0.35
2 | CCOc1nc2cccc(C(=O)OC(C)OC(=O)OC3CCCCC3)c2n1Cc1ccc(-c2ccccc2-c2nnn[nH]2)cc1 (stereo not drawn) [Candesartan cilexetil, 1-(cyclohexyloxycarbonyloxy)ethyl 2-ethoxy-1-[2′-(1H-tetrazol-5-yl)biphenyl-4-ylmethyl]-1H-benzimidazole-7-carboxylate] | tendency for suppression of death due to renal failure was observed | reduction in score was observed | 1.52 ± 0.45
